Test system: human childhood brain tumor cell lines (PFSK-1)
Experiment: Growth inhibitory activity against PFSK-1 cells (WST-8, Cell Counting Kit-8)
Format: cell-based
Conditions: Homo sapiens, 72 h, 3 days incubation with test compound, WST-8 OD 450/630 nm, read-out: IC50 (concentration inhibiting 50% of the cell growth)
Description: The growth inhibitory activity against human childhood brain tumor cell lines (PFSK-1) was measured with WST-8 reagent [2-(2-methoxy-4-nitrophenyl)-3-(4-nitrophenyl)-5-(2,4-disulfophenyl)-2H-tetrazolium monosodium salt, Cell Counting Kit-8™], according to the method described in Tominaga, H. et al., Anal. Commun., 1999, 36, 47-50. Briefly, PFSK-1 was seeded in 96-well microplate at 100 μL/well with Roswell Park Memorial Institute (RPMI) 1640 medium containing 10% fetal bovine serum (FBS), and the cells were incubated in the presence of 5% carbon dioxide (CO2) at 37° C. for 24 hours. 50 μL of each test compound diluted with the medium was added to each well, and then the cells were incubated further for 3 days. After the incubation, 15 μL of Cell Counting Kit-8™ was added to each well, and the cells were incubated for one and half hours. Then, optical density (OD) values at measurement wavelength 450 nm and reference wavelength 630 nm were measured and the difference thereof was calculated. From the calculated difference, the OD value difference (at measurement wavelength 450 nm and reference wavelength 630 nm) of the control well which includes no cell was subtracted to afford cell-growth activity in each well.
The cell growth inhibitory activity of each test compound was calculated by comparing the cell-growth activity with each test compound to the cell-growth activity without any test compound (control), and each IC50 (nM) which is the concentration inhibiting 50% of the cell growth was calculated.

SMILES | IC50
Cc1c(F)c(C2=NNC(=O)CC2C)cc(Cl)c1OCC(C)(C)O (stereo not shown) [Example 35, 6-[5-Chloro-2-fluoro-4-(2-hydroxy-2-methylpropoxy)-3-methylphenyl]-5-methyl-4,5-dihydro-2H-pyridazin-3-one] | 6.3 nM
CC1CC(=O)NN=C1c1ccc(OC/C=C\CO)c(F)c1F (stereo not shown) [Example 93, 6-{2,3-Difluoro-4-[(Z)-4-hydroxy-2-butenyloxy]phenyl}-5-methyl-4,5-dihydro-2H-pyridazin-3-one] | 3.1 nM
Cc1c(OCC2(O)CC2)ccc(C2=NNC(=O)CC2C)c1O (stereo not shown) [Example 166, 6-{2-Hydroxy-4-[(1-hydroxycyclopropyl)methoxy]-3-methylphenyl}-5-methyl-4,5-dihydro-2H-pyridazin-3-one] | 4.7 nM
Cc1cc(C2=NNC(=O)CC2C)cc(C)c1OCC(C)(C)O (stereo not shown) [Example 32, 6-[4-(2-Hydroxy-2-methylpropoxy)-3,5-dimethylphenyl]-5-methyl-4,5-dihydro-2H-pyridazin-3-one] | 4 nM
C[C@@H]1CC(=O)NN=C1c1ccc(OCC2(O)CC2)c(F)c1F [Example 123, (5R)-(−)-6-[2,3-Difluoro-4-[(1-hydroxycyclopropyl)methoxy]phenyl]-5-methyl-4,5-dihydro-2H-pyridazin-3-one] | 3.3 nM
Cc1c(OC/C=C\CO)ccc(C2=NNC(=O)CC2C)c1F (stereo not shown) [Example 92, 6-[2-Fluoro-4-[(Z)-4-hydroxy-2-butenyloxy]-3-methylphenyl]-5-methyl-4,5-dihydro-2H-pyridazin-3-one] | 4.9 nM
Cc1cc(C2=NNC(=O)CC2C)cc(C)c1OCCCO (stereo not shown) [Example 14, 6-[4-(3-Hydroxypropoxy)-3,5-dimethylphenyl]-5-methyl-4,5-dihydro-2H-pyridazin-3-one] | 8 nM
Cc1cc(C2=NNC(=O)CC2C)cc(F)c1OCC(C)(C)CCO (stereo not shown) [Example 101, 6-[3-Fluoro-4-(4-hydroxy-2,2-dimethylbutoxy)-5-methylphenyl]-5-methyl-4,5-dihydro-2H-pyridazin-3-one] | 7.5 nM
Cc1c(O)c(C2=NNC(=O)CC2C)cc(Cl)c1OCC1(O)CC1 (stereo not shown) [Example 176, 6-{5-Chloro-2-hydroxy-4-[(1-hydroxycyclopropyl)methoxy]-3-methylphenyl}-5-methyl-4,5-dihydro-2H-pyridazin-3-one] | 9.2 nM
CCc1c(OCCCCO)ccc(C2=NNC(=O)CC2C)c1F (stereo not shown) [Example 97, 6-[3-Ethyl-2-fluoro-4-(4-hydroxybutoxy)phenyl]-5-methyl-4,5-dihydro-2H-pyridazin-3-one] | 8.6 nM
Cc1cc(C2=NNC(=O)CC2C)c(F)c(C)c1OCC(F)(F)CO (stereo not shown) [Example 160, 6-[4-(2,2-Difluoro-3-hydroxypropoxy)-2-fluoro-3,5-dimethylphenyl]-5-methyl-4,5-dihydro-2H-pyridazin-3-one] | 1.9 nM
CC1CC(=O)NN=C1c1ccc(OCC(C)(C)CO)c(F)c1F (stereo not shown) [Example 9, 6-[2,3-Difluoro-4-(3-hydroxy-2,2-dimethylpropoxy)phenyl]-5-methyl-4,5-dihydro-2H-pyridazin-3-one] | 4.2 nM
C=Cc1c(OC/C=C\CO)ccc(C2=NNC(=O)CC2C)c1F (stereo not shown) [Example 96, 6-{2-Fluoro-4-[(Z)-4-hydroxy-2-butenyloxy]-3-vinylphenyl}-5-methyl-4,5-dihydro-2H-pyridazin-3-one] | 3.9 nM
Cc1c(OC/C=C\CO)ccc(C2=NNC(=O)CC2C)c1O (stereo not shown) [Example 153, 6-{2-Hydroxy-4-[(Z)-4-hydroxy-2-butenyloxy]-3-methylphenyl}-5-methyl-4,5-dihydro-2H-pyridazin-3-one] | 5.3 nM
Cc1c(OCC(C)O)ccc(C2=NNC(=O)CC2C)c1F (stereo not shown) [Example 58, 6-[2-Fluoro-4-(2-hydroxypropoxy)-3-methylphenyl]-5-methyl-4,5-dihydro-2H-pyridazin-3-one] | 2.8 nM
CC1CC(=O)NN=C1c1ccc(OCC(C)(C)O)c(C#N)c1F (stereo not shown) [Example 105, 2-Fluoro-6-(2-hydroxy-2-methylpropoxy)-3-(4-methyl-6-oxo-4,5-dihydro-1H-pyridazin-3-yl)benzonitrile] | 9 nM
CC1CC(=O)NN=C1c1ccc(OC/C=C\CO)c(Cl)c1F (stereo not shown) [Example 76, 6-{3-chloro-2-fluoro-4-[(Z)-4-hydroxy-2-butenyloxy]phenyl}-5-methyl-4,5-dihydro-2H-pyridazin-3-one] | 2.7 nM
Cc1cc(C2=NNC(=O)CC2C)cc(Cl)c1OCC(C)O (stereo not shown) [Example 55, 6-[3-chloro-4-(2-hydroxypropoxy)-5-methylphenyl]-5-methyl-4,5-dihydro-2H-pyridazin-3-one] | 1.9 nM
Cc1cc(C2=NNC(=O)CC2C)c(F)cc1OC(F)(F)CO (stereo not shown) [Example 177, 6-[4-(1,1-difluoro-2-hydroxyethoxy)-2-fluoro-5-methylphenyl]-5-methyl-4,5-dihydro-2H-pyridazin-3-one] | 4 nM

SMILES | IC50
Cc1cc(C2=NNC(=O)CC2C)cc(Cl)c1OC/C=C\CO (stereo not shown) [Example 86, 6-{3-Chloro-4-[(Z)-4-hydroxy-2-butenyloxy]-5-methylphenyl}-5-methyl-4,5-dihydro-2H-pyridazin-3-one] | 4.6 nM
CC1CC(=O)NN=C1c1cc(F)c(OCCCO)c(Cl)c1F (stereo not shown) [Example 140, 6-[3-chloro-2,5-difluoro-4-(3-hydroxypropoxy)phenyl]-5-methyl-4,5-dihydro-2H-pyridazin-3-one] | 2 nM
CC1CC(=O)NN=C1c1cc(Cl)c(OCC(C)(C)O)c(Br)c1 (stereo not shown) [Example 1, 6-[3-bromo-5-chloro-4-(2-hydroxy-2-methylpropoxy)phenyl]-5-methyl-4,5-dihydro-2H-pyridazin-3-one] | 1.1 nM
C[C@@H]1CC(=O)NN=C1c1ccc(OCCO)c(Cl)c1F [Example 126, (5R)-(−)-6-[3-Chloro-2-fluoro-4-(2-hydroxyethoxy)phenyl]-5-methyl-4,5-dihydro-2H-pyridazin-3-one] | 2.9 nM
Cc1c(F)c(C2=NNC(=O)CC2C)cc(Cl)c1OCC(C)(C)CO (stereo not shown) [Example 136, 6-[5-Chloro-2-fluoro-4-(3-hydroxy-2,2-dimethylpropoxy)-3-methylphenyl]-5-methyl-4,5-dihydro-2H-pyridazin-3-one] | 5.2 nM
Cc1c(F)c(C2=NNC(=O)CC2C)cc(Cl)c1OCC(F)(F)CO (stereo not shown) [Example 158, 6-[5-Chloro-4-(2,2-difluoro-3-hydroxypropoxy)-2-fluoro-3-methylphenyl]-5-methyl-4,5-dihydro-2H-pyridazin-3-one] | 4.3 nM
Cc1cc(C2=NNC(=O)C[C@H]2C)cc(Cl)c1OCCO [Example 116, (5R)-(−)-6-[3-chloro-4-(2-hydroxyethoxy)-5-methylphenyl]-5-methyl-4,5-dihydro-2H-pyridazin-3-one] | 4.3 nM
C=Cc1c(OCC(C)(C)O)ccc(C2=NNC(=O)CC2C)c1F (stereo not shown) [Example 133, 6-[2-Fluoro-4-(2-hydroxy-2-methylpropoxy)-3-vinylphenyl]-5-methyl-4,5-dihydro-2H-pyridazin-3-one] | 3.4 nM
CC1CC(=O)NN=C1c1cc(Cl)c(OCC(C)(C)O)c(Cl)c1 (stereo not shown) [Example 2, 6-[3,5-dichloro-4-(2-hydroxy-2-methylpropoxy)phenyl]-5-methyl-4,5-dihydro-2H-pyridazin-3-one] | 1 nM
Cc1cc(C2=NNC(=O)CC2C)cc(Cl)c1OCCCCO (stereo not shown) [Example 79, 6-[3-Chloro-4-(4-hydroxybutoxy)-5-methylphenyl]-5-methyl-4,5-dihydro-2H-pyridazin-3-one] | 5.6 nM
CC(O)COc1c(F)cc(C2=NNC(=O)CC2C)cc1Cl (stereo not shown) [Example 52, 6-[3-Chloro-5-fluoro-4-(2-hydroxypropoxy)phenyl]-5-methyl-4,5-dihydro-2H-pyridazin-3-one] | 3.8 nM
CC1CC(=O)NN=C1c1cc(F)c(OCC(C)(C)CCO)c(Cl)c1 (stereo not shown) [Example 99, 6-[3-chloro-5-fluoro-4-(4-hydroxy-2,2-dimethylbutoxy)phenyl]-5-methyl-4,5-dihydro-2H-pyridazin-3-one] | < 1 nM
CC(O)COc1c(Cl)cc(C2=NNC(=O)CC2C)cc1Br (stereo not shown) [Example 57, 6-[3-bromo-5-chloro-4-(2-hydroxypropoxy)phenyl]-5-methyl-4,5-dihydro-2H-pyridazin-3-one] | < 1 nM
CC1CC(=O)NN=C1c1ccc(OCC(C)(C)O)c(Br)c1F (stereo not shown) [Example 24, 6-[3-bromo-2-fluoro-4-(2-hydroxy-2-methylpropoxy)phenyl]-5-methyl-4,5-dihydro-2H-pyridazin-3-one] | 1.7 nM
Cc1c(OCCCCO)ccc(C2=NNC(=O)CC2C)c1F (stereo not shown) [Example 83, 6-[2-Fluoro-4-(4-hydroxybutoxy)-3-methylphenyl]-5-methyl-4,5-dihydro-2H-pyridazin-3-one] | 6.6 nM
CC1CC(=O)NN=C1c1ccc(OCC(F)(F)CO)c(Cl)c1F (stereo not shown) [Example 110, 6-[3-Chloro-4-(2,2-difluoro-3-hydroxypropoxy)-2-fluorophenyl]-5-methyl-4,5-dihydro-2H-pyridazin-3-one] | 7.9 nM
CCC(O)COc1c(F)cc(C2=NNC(=O)CC2C)cc1Cl (stereo not shown) [Example 62, 6-[3-Chloro-5-fluoro-4-(2-hydroxybutoxy)phenyl]-5-methyl-4,5-dihydro-2H-pyridazin-3-one] | 8.9 nM
CC1CC(=O)NN=C1c1cc(F)c(OC/C=C\CO)c(Cl)c1F (stereo not shown) [Example 152, 6-{3-Chloro-2,5-difluoro-4-[(Z)-4-hydroxy-2-butenyloxy]phenyl}-5-methyl-4,5-dihydro-2H-pyridazin-3-one] | 3.4 nM
